{"source": "patent US7973219B2", "about": "“Method for producing transgenic plants resistant to weed control compounds which disrupt the porphyrin pathways of plants” (Sumitomo Chemical Company, Limited, priority 1998, dated 2011)", "key": {"[1]": {"tested_on": "E. coli BT3/pACYCSP strain", "assay": "Growth of E. coli BT3/pACYCSP with herbicidal compound (absorbance at 600 nm)", "assay_type": "cell-based, Escherichia coli", "settings": "18 hours culture, A600, medium without compound = 1, Table 1", "description": "(§1) According to the description of Gibson, L. C. D. et al., Proc. Natl. Acad. Sci. USA, 92; p 1941 (1995), the DNA fragment containing bchH gene prepared in Example 1 was digested with the restriction enzymes NdeI and BglII. The resultant DNA fragment was inserted between NdeI restriction site and BamHI restriction site of expression vector pET11a (manufactured by Stratagene) to obtain plasmid pETBCH (FIG. 1). This plasmid pETBCH was introduced into E. coli BL21(DE3) strain competent cells (manufactured by Stratagene) according to the manual attached to the competent cells to obtain E. coli BL21(DE3)/pETBCH strain. The strain was inoculated into 1.5 ml LB liquid culture medium (1% tryptone, 0.5% yeast extract, 0.5% NaCl) containing 100 μg/ml ampicillin in a tube (14×10 mm), and the tube was covered with aluminum foil (hereinafter referred to as dark conditions), cultured with shaking at 37° C. under light of fluorescent lamp (about 8000 lux). When the absorbance at 600 nm of the liquid culture medium became about 0.6, isopropyl β-D-thiogalactopyranoside (IPTG) was added to the liquid culture medium so that the final concentration was 0.4 mM, and the culture was continued for about additional 20 hours. […] In contrast to this, when E. coli BL21(DE3)/pETBCH strain was cultured according to the same manner (with IPTG) except that the tube was not covered with aluminum foil (hereinafter referred to as light conditions), E. coli grew and turned red as above.\nThe plasmid pSPPO-P was digested with restriction enzyme PshBI, the resultant DNA fragment was blunted by using T4 DNA polymerase and further digested with SphI to isolate the DNA fragment containing chloroplast-type PPO gene of soybean and lac promoter. Then, the plasmid pACYC184 (manufactured by Nippon Gene) was digested with the restriction enzymes NruI and SphI to remove a fragment of 410 bp and the above DNA fragment was inserted instead to obtain plasmid pACYCSP (FIG. 2). […]\nE. coli BT3/pACYCSP strain prepared in Example 3 was inoculated into YPT medium containing 10 or 1 ppm of PPO inhibitory type herbicidal compound represented by the above Structure 8, 10 μg/ml hemin, 50 μg/ml aminolevulinic acid, 15 μg/ml chloramphenicol and 10 μg/ml kanamycin, cultured under dark conditions or light conditions according to the same manner as in Example 2. […] Then, 18 hours after initiation of culture, the absorbance of the liquid culture medium was measured at 600 nm. By taking the absorbance of the medium without the herbicidal compound as 1, the relative value of the absorbance of the medium containing the herbicidal compound was calculated."}, "[2]": {"tested_on": "E. coli BT3/pACYCSP+pHEMF strain", "assay": "Growth of E. coli BT3/pACYCSP+pHEMF (E. coli hemF) with herbicidal compound", "assay_type": "cell-based, Escherichia coli", "settings": "18 hours culture, Table 14", "description": "as §1\nThe DNA fragment containing hemF gene amplified by the method described in Example 26 was digested with restriction enzymes FbaI and PstI, and inserted between BamHI restriction site and PstI restriction site of commercially available plasmid […] (manufactured by Takara Shuzo Co., Ltd.) to construct plasmid pHEMF (FIG. 16).\nThe plasmid pHEMF and pTV118N were introduced into E. coli BT3/pACYCSP strain prepared in Example 3 respectively according to the method described in Hanahan, D. J., Mol. Biol., 166; p 557 (1983). […]\nThese E. coli strains were inoculated into YPT medium containing 10 or 1 ppm of the PPO inhibitory-type herbicidal compound represented by Structure 8, 100 μg/ml ampicillin, 15 μg/ml chloramphenicol, 10 μg/ml kanamycin, 10 μg/ml hemin and 50 μg/ml aminolevulinic acid, cultured under dark conditions or light conditions according to the same manner as in Example 2. Then, 18 hours after initiation of culture, the absorbance of liquid culture medium was measured at 600 nm. By taking the absorbance of the medium without the herbicidal compound as I, the relative value of the absorbance of the medium containing the herbicidal compound was calculated."}}}
{"smiles": "C#CCOc1cc(N2C(=O)C3=C(CCCC3)C2=O)c(F)cc1Cl", "note": "[Structure 8]", "values": [{"measurement": "Relative absorbance", "setting": "[1]; in the dark, 1 ppm", "value": 0.95}, {"measurement": "Relative absorbance", "setting": "[1]; in the dark, 10 ppm", "value": 0.73}, {"measurement": "Relative absorbance", "setting": "[1]; in the light, 1 ppm", "value": 0.25}, {"measurement": "Relative absorbance", "setting": "[1]; in the light, 10 ppm", "value": 0.10}, {"measurement": "Relative absorbance", "setting": "[2]; in the dark, 1 ppm", "value": 0.95}, {"measurement": "Relative absorbance", "setting": "[2]; in the dark, 10 ppm", "value": 0.94}, {"measurement": "Relative absorbance", "setting": "[2]; in the light, 1 ppm", "value": 1.0}, {"measurement": "Relative absorbance", "setting": "[2]; in the light, 10 ppm", "value": 0.48}]}
